Key:
M-NFS-60 cells = assay: cells; conditions: 67 h, read-out: M-NFS-60 cell proliferation
Procedure: M-NFS-6 Cell Proliferation Assay
A serial dilution of test compound was dispensed into a 384-well black clear bottom plate (Corning, Corning, N.Y.). Two thousand five hundred cells were added per well in 50 μL complete growth medium. […] IC50 values were calculated from a series of percent inhibition values determined at a range of inhibitor concentrations using software routines as implemented in the GraphPad Prism software package.

osteoclast precursors = assay: cells; type: cell-based; conditions: read-out: Osteoclast assay
Procedure: Osteoclast Tartrate-Resistant Acid Phosphatase Assay
Diluted compound was transferred to a 384-well black clear bottom plate. Two-thousand five hundred osteoclast precursors (Lonza, Walkersville, Md.) were added per well in growth media containing Receptor Activator of Nuclear Factor Kappa-beta ligand (RANKL) and M-CSF (R&D Systems, Minneapolis, Minn.). […] Tartrate-resistant acid phosphatase activity in the supernatant samples was determined using an acid phosphatase assay kit (Sigma, St. Louis, Mo.). Absorbance was measured at 550 nm using a plate reader. Data was analyzed using Prism software (Graphpad, San Diego, Calif.) to calculate IC50 values.

[1] = target: unphosphorylated PDGFRβ kinase (uPDGFRβ, Seq. ID No. 3) (Homo sapiens, UniProt P09619); assay: biochemical; conditions: uPDGFRb, enzymatic assay, ATP 500 μM
[2] = target: T1, unphosphorylated c-FMS kinase (uFMS, Seq. ID no. 1) (Homo sapiens, UniProt P07333); assay: biochemical; conditions: uFMS, enzymatic assay, ATP 500 μM
T1 sequence (P07333 538-972): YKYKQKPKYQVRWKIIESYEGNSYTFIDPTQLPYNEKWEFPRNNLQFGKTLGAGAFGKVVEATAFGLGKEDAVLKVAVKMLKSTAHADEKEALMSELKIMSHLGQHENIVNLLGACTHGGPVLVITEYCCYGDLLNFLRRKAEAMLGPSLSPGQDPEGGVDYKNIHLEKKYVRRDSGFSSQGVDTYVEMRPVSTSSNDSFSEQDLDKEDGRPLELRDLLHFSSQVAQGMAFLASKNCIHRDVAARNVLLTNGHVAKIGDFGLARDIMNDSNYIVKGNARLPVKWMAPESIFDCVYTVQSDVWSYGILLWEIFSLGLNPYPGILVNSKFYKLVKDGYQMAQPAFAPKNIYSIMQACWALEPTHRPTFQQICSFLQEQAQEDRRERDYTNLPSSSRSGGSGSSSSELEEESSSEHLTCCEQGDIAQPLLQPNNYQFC

[3] = target: unphosphorylated c-KIT kinase (uKIT, Seq. ID no. 2) (Homo sapiens, UniProt P10721); assay: biochemical; conditions: uKIT, enzymatic assay, ATP 2000 μM
Sequence of unphosphorylated c-KIT kinase (uKIT, Seq. ID no. 2) (P10721 with tags, fused parts or gaps): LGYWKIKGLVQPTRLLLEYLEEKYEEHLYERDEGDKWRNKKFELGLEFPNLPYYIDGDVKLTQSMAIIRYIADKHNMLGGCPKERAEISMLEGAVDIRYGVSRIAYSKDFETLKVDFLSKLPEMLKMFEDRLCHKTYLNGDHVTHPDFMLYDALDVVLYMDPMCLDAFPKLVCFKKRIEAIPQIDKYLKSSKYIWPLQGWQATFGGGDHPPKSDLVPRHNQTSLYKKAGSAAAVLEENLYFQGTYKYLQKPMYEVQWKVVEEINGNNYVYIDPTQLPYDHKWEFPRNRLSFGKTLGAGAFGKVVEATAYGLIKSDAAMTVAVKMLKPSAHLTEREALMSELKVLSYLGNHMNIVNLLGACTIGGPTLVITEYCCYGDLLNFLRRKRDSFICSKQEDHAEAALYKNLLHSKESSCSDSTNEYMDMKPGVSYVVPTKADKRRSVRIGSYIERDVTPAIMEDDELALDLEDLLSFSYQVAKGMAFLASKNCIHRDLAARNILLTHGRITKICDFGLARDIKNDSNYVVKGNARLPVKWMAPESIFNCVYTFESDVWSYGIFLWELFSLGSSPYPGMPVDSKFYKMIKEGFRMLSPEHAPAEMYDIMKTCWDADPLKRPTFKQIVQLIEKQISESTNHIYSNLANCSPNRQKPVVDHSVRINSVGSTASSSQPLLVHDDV
Procedure: uKit kinase (Seq. ID No. 2) Assay
In this assay, the oxidation of NADH (thus the decrease at A340 nm) was continuously monitored spectrophometrically. […] The inhibition reaction was started by mixing serial diluted test compound with the above reaction mixture. The absorption at 340 nm was monitored continuously for 4 hours at 30° C. on Synergy 2 plate reader (BioTech).

Sequence of unphosphorylated PDGFRβ kinase (uPDGFRβ, Seq. ID No. 3) (P09619 557-1106): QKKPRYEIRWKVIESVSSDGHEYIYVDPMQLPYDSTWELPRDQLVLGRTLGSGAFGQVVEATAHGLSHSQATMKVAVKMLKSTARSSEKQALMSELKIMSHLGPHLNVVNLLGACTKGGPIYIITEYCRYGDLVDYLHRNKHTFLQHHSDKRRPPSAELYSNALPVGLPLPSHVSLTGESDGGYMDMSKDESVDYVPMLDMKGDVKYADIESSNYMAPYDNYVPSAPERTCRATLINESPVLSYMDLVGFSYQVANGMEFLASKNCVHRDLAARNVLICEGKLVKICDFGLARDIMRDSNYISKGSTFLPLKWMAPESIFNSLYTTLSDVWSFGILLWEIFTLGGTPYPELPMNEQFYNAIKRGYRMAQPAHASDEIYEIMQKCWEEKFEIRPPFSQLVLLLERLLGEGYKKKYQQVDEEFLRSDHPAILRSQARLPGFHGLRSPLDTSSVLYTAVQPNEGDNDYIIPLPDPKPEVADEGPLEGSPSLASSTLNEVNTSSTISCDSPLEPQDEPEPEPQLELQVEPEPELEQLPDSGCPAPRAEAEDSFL

Row | IC50 (osteoclast precursors) | IC50 [1] | IC50 [2] | IC50 [3] | Compound | IC50 (M-NFS-60 cells)
1 | 10 to 100 nM | 100 to 1000 nM | < 10 nM | 10 to 100 nM | Cc1nc(NC(=O)NC(=O)C(C)(C)C)ccc1Oc1ccnc(-c2ccc(N3CCN(C)CC3)cc2)c1 [Example 118, N-((6-methyl-5-((2-(4-(4-methylpiperazin-1-yl)phenyl)pyridin-4-yl)oxy)pyridin-2-yl)carbamoyl)pivalamide] | 10 to 100 nM
2 | 10 to 100 nM | 100 to 1000 nM | < 10 nM | 100 to 1000 nM | Cc1nc(NC(=O)NC(=O)C2(C(F)(F)F)CCC2)ccc1Oc1ccnc(-c2cnn(C)c2)c1 [Example 102, N-((6-methyl-5-((2-(1-methyl-1H-pyrazol-4-yl)pyridin-4-yl)oxy)pyridin-2-yl)carbamoyl)-1-(trifluoromethyl)cyclobutanecarboxamide] | < 10 nM
3 | 10 to 100 nM | 10 to 100 nM | < 10 nM | < 10 nM | Cn1cc(-c2cc(Oc3ccc(NC(=O)NC(=O)C4CC5CCC4CC5)nc3)ccn2)cn1 (centres unmarked) [Example 74, N-((5-((2-(1-methyl-1H-pyrazol-4-yl)pyridin-4-yl)oxy)pyridin-2-yl)carbamoyl)bicyclo[2.2.2]octane-2-carboxamide] | < 10 nM
4 | < 10 nM | 10 to 100 nM | < 10 nM | < 10 nM | Cn1cc(-c2cc(Oc3ccc(NC(=O)NC(=O)C4CCCCC4)nc3)ccn2)cn1 [Example 67, N-((5-((2-(1-methyl-1H-pyrazol-4-yl)pyridin-4-yl)oxy)pyridin-2-yl)carbamoyl)cyclohexanecarboxamide] | < 10 nM
5 | 10 to 100 nM | > 1000 nM | 10 to 100 nM | > 1000 nM | CCC(=O)NC(=O)Nc1ccc(Oc2ccnc(-c3ccc(C)nc3)c2)cn1 [Example 108, N-((5-((6′-methyl-[2,3′-bipyridin]-4-yl)oxy)pyridin-2-yl)carbamoyl)propionamide] | > 1000 nM
6 | 10 to 100 nM | 100 to 1000 nM | < 10 nM | 100 to 1000 nM | COC1(C(=O)NC(=O)Nc2ccc(Oc3ccnc(-c4cc(C)no4)c3)c(C)n2)CCCC1 [Example 166, 1-methoxy-N-((6-methyl-5-((2-(3-methylisoxazol-5-yl)pyridin-4-yl)oxy)pyridin-2-yl)carbamoyl)cyclopentanecarboxamide] | 10 to 100 nM
7 | < 10 nM | 100 to 1000 nM | < 10 nM | 100 to 1000 nM | Cn1cc(-c2cc(Oc3ccc(NC(=O)NC(=O)C4CCOCC4)nc3)ccn2)cn1 [Example 68, N-((5-((2-(1-methyl-1H-pyrazol-4-yl)pyridin-4-yl)oxy)pyridin-2-yl)carbamoyl)tetrahydro-2H-pyran-4-carboxamide] | 10 to 100 nM
8 | 10 to 100 nM | > 1000 nM | < 10 nM | > 1000 nM | CC(C)(C)C(=O)NC(=O)Nc1ccc(Oc2ccnc(-c3ccc(C(F)(F)F)nc3)c2)cn1 [Example 94, N-((5-((6′-(trifluoromethyl)-[2,3′-bipyridin]-4-yl)oxy)pyridin-2-yl)carbamoyl)pivalamide] | 10 to 100 nM
9 | 10 to 100 nM | > 1000 nM | 10 to 100 nM | > 1000 nM | Cc1cn(-c2cc(Oc3ccc(NC(=O)NC(=O)[C@@H]4C[C@H]5CC[C@@H]4O5)nc3C)ccn2)cn1 (relative stereo) [Example 137, exo-N-((6-methyl-5-((2-(4-methyl-1H-imidazol-1-yl)pyridin-4-yl)oxy)pyridin-2-yl)carbamoyl)-7-oxabicyclo[2.2.1]heptane-2-carboxamide] | 100 to 1000 nM
10 | < 10 nM | 100 to 1000 nM | < 10 nM | 100 to 1000 nM | CCC(C)(C)C(=O)NC(=O)Nc1ccc(Oc2ccnc(-c3cnn(C)c3)c2)cn1 [Example 63, 2,2-dimethyl-N-((5-((2-(1-methyl-1H-pyrazol-4-yl)pyridin-4-yl)oxy)pyridin-2-yl)carbamoyl)butanamide] | < 10 nM
11 | 100 to 1000 nM | > 1000 nM | 100 to 1000 nM | > 1000 nM | Cc1cn(-c2cc(Oc3ccc(NC(=O)NC(=O)C4CCOC4)nc3C)ccn2)cn1 (centres unmarked) [Example 136, N-((6-methyl-5-((2-(4-methyl-1H-imidazol-1-yl)pyridin-4-yl)oxy)pyridin-2-yl)carbamoyl)tetrahydrofuran-3-carboxamide] | 100 to 1000 nM
12 | < 10 nM | 100 to 1000 nM | < 10 nM | 100 to 1000 nM | CNc1ccc(-c2cc(Oc3ccc(NC(=O)NC(=O)C(C)(C)C)nc3)ccn2)cn1 [Example 105, N-((5-((6′-(methylamino)-[2,3′-bipyridin]-4-yl)oxy)pyridin-2-yl)carbamoyl)pivalamide] | 10 to 100 nM
13 | 100 to 1000 nM | 10 to 100 nM | < 10 nM | 10 to 100 nM | Cc1nc(NC(=O)NC(=O)C23CC4CC(CC(C4)C2)C3)ccc1Oc1ccnc(-c2cnn(C)c2)c1 [Example 37, N-((6-methyl-5-((2-(1-methyl-1H-pyrazol-4-yl)pyridin-4-yl)oxy)pyridin-2-yl)carbamoyl)adamantane-1-carboxamide] | 10 to 100 nM
14 | 10 to 100 nM | 100 to 1000 nM | < 10 nM | 100 to 1000 nM | Cc1nc(NC(=O)NC(=O)C(C)(C)C)ccc1Oc1ccnc(-c2ccc(C3CCN(C)CC3)cc2)c1 [Example 109, N-((6-methyl-5-((2-(4-(1-methylpiperidin-4-yl)phenyl)pyridin-4-yl)oxy)pyridin-2-yl)carbamoyl)pivalamide] | < 10 nM
15 | < 10 nM | 100 to 1000 nM | < 10 nM | 100 to 1000 nM | Cn1cc(-c2cc(Oc3ccc(NC(=O)NC(=O)C4(C)CCC4)nc3)ccn2)cn1 [Example 87, 1-methyl-N-((5-((2-(1-methyl-1H-pyrazol-4-yl)pyridin-4-yl)oxy)pyridin-2-yl)carbamoyl)cyclobutanecarboxamide] | < 10 nM
16 | 10 to 100 nM | > 1000 nM | 10 to 100 nM | > 1000 nM | CC(C)(C)C(=O)NC(=O)Nc1ccc(Oc2ccnc(-c3cncnc3)c2)cn1 [Example 90, N-((5-((2-(pyrimidin-5-yl)pyridin-4-yl)oxy)pyridin-2-yl)carbamoyl)pivalamide] | > 1000 nM
17 | 10 to 100 nM | > 1000 nM | 10 to 100 nM | > 1000 nM | Cc1ccc(-c2cc(Oc3ccc(NC(=O)NC(=O)C4CCOC4)nc3)ccn2)cn1 (centres unmarked) [Example 89, N-((5-((6′-methyl-[2,3′-bipyridin]-4-yl)oxy)pyridin-2-yl)carbamoyl)tetrahydrofuran-3-carboxamide] | 10 to 100 nM
18 | 10 to 100 nM | > 1000 nM | 100 to 1000 nM | > 1000 nM | COC(C)(C)C(=O)NC(=O)Nc1ccc(Oc2ccnc(-c3cnc(C)n3C)c2)cn1 [Example 139, N-((5-((2-(1,2-dimethyl-1H-imidazol-5-yl)pyridin-4-yl)oxy)pyridin-2-yl)carbamoyl)-2-methoxy-2-methylpropanamide] | 100 to 1000 nM
19 | 10 to 100 nM | 100 to 1000 nM | < 10 nM | 100 to 1000 nM | COC1(C(=O)NC(=O)Nc2ccc(Oc3ccnc(-c4ccnc(C)c4)c3)cn2)CCCC1 [Example 168, 1-methoxy-N-((5-((2′-methyl-[2,4′-bipyridin]-4-yl)oxy)pyridin-2-yl)carbamoyl)cyclopentanecarboxamide] | 10 to 100 nM
20 | < 10 nM | 100 to 1000 nM | < 10 nM | 10 to 100 nM | Cc1cc(NC(=O)NC(=O)C(C)C)ncc1Oc1ccnc(-c2cnn(C)c2)c1 [Example 88, N-((4-methyl-5-((2-(1-methyl-1H-pyrazol-4-yl)pyridin-4-yl)oxy)pyridin-2-yl)carbamoyl)isobutyramide] | < 10 nM
21 | < 10 nM | < 10 nM | < 10 nM | < 10 nM | Cn1cc(-c2cc(Oc3ccc(NC(=O)NC(=O)CC4CC5CCC4C5)nc3)ccn2)cn1 (centres unmarked) [Example 62, 2-(bicyclo[2.2.1]heptan-2-yl)-N-((5-((2-(1-methyl-1H-pyrazol-4-yl)pyridin-4-yl)oxy)pyridin-2-yl)carbamoyl)acetamide] | < 10 nM
22 | 10 to 100 nM | > 1000 nM | 10 to 100 nM | > 1000 nM | COC(C)(C)C(=O)NC(=O)Nc1ccc(Oc2ccnc(-c3ccc(C#N)nc3)c2)c(C)n1 [Example 110, N-((5-((6′-cyano-[2,3′-bipyridin]-4-yl)oxy)-6-methylpyridin-2-yl)carbamoyl)-2-methoxy-2-methylpropanamide] | 100 to 1000 nM

— US9382228B2 (priority 2013, dated 2016)
